Test results taken from PubChem BioAssay AID2060483 (Molecular Pharmacology Branch, DTP, NCI, 2025).

System: K24384-001-R-PDC complex spheroids, viability
Assay: Anticancer human tumor K24384-001-R-PDC patient-derived pancreatic adenocarcinoma cell line growth inhibition [GQUAD]
Settings: for IC50: curve of first compound; for viability, T/C: stronger effect = lower value
Method in brief: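 Viability of tumor cells grown as complex spheroids with endothelial and stromal cells, exposed to drug combinations. Top concentration at or near clinical Cmax (else 10 microM), diluted in half-log increments.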

[1] = second compound 0.0316 µM, first compound 0.0316 µM
[2] = second compound 0.0316 µM, first compound 0.1 µM
[3] = second compound 0.0316 µM, first compound 0.316 µM
[4] = second compound 0.0316 µM, first compound 1 µM
[5] = second compound 0.0316 µM, first compound 3.16 µM
[6] = second compound 0.0316 µM, first compound 10 µM
[7] = second compound 0.1 µM, first compound 0.0316 µM
[8] = second compound 0.1 µM, first compound 0.1 µM
[9] = second compound 0.1 µM, first compound 0.316 µM
[10] = second compound 0.1 µM, first compound 1 µM
[11] = second compound 0.1 µM, first compound 3.16 µM
[12] = second compound 0.1 µM, first compound 10 µM
[13] = second compound 0.316 µM, first compound 0.0316 µM
[14] = second compound 0.316 µM, first compound 0.1 µM
[15] = second compound 0.316 µM, first compound 0.316 µM
[16] = second compound 0.316 µM, first compound 1 µM
[17] = second compound 0.316 µM, first compound 3.16 µM
[18] = second compound 0.316 µM, first compound 10 µM
[19] = second compound 1 µM, first compound 0.0316 µM
[20] = second compound 1 µM, first compound 0.1 µM
[21] = second compound 1 µM, first compound 0.316 µM
[22] = second compound 1 µM, first compound 1 µM
[23] = second compound 1 µM, first compound 3.16 µM
[24] = second compound 1 µM, first compound 10 µM
[25] = second compound 3.16 µM, first compound 0.0316 µM
[26] = second compound 3.16 µM, first compound 0.1 µM
[27] = second compound 3.16 µM, first compound 0.316 µM
[28] = second compound 3.16 µM, first compound 1 µM
[29] = second compound 3.16 µM, first compound 3.16 µM
[30] = second compound 3.16 µM, first compound 10 µM
[31] = second compound 10 µM, first compound 0.0316 µM
[32] = second compound 10 µM, first compound 0.1 µM
[33] = second compound 10 µM, first compound 0.316 µM
[34] = second compound 10 µM, first compound 1 µM
[35] = second compound 10 µM, first compound 3.16 µM
[36] = second compound 10 µM, first compound 10 µM
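Also: spheroids exposed to compounds for seven days.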

Compound: COc1cccc2c1C(=O)c1c(O)c3c(c(O)c1C2=O)CC(O)(C(=O)CO)CC3OC1CC(N)C(O)C(C)O1 (centres undefined) + Cc1[nH]c2ccc(F)cc2c1-c1nc2c3cccnc3c3ncccc3c2[nH]1
- IC50 (second compound 0.0316 µM): 191 nM
- IC50 (second compound 0.1 µM): 204 nM
- IC50 (second compound 0.316 µM): 203 nM
- IC50 (second compound 1 µM): 219 nM
- IC50 (second compound 3.16 µM): 126 nM
- IC50 (second compound 10 µM): 80.1 nM
- viability, T/C [1]: 89.8%
- viability, T/C [2]: 70%
- viability, T/C [3]: 33.1%
- viability, T/C [4]: 17.6%
- viability, T/C [5]: 5.95%
- viability, T/C [6]: 4.77%
- viability, T/C [7]: 78.8%
- viability, T/C [8]: 64.8%
- viability, T/C [9]: 39.2%
- viability, T/C [10]: 25.6%
- viability, T/C [11]: 8.24%
- viability, T/C [12]: 4.61%
- viability, T/C [13]: 74.2%
- viability, T/C [14]: 63.4%
- viability, T/C [15]: 40.9%
- viability, T/C [16]: 22.4%
- viability, T/C [17]: 6.31%
- viability, T/C [18]: 4.4%
- viability, T/C [19]: 85.4%
- viability, T/C [20]: 75.3%
- viability, T/C [21]: 32.2%
- viability, T/C [22]: 27.8%
- viability, T/C [23]: 7.66%
- viability, T/C [24]: 4.24%
- viability, T/C [25]: 70.6%
- viability, T/C [26]: 55.1%
- viability, T/C [27]: 32%
- viability, T/C [28]: 28%
- viability, T/C [29]: 7.01%
- viability, T/C [30]: 1.96%
- viability, T/C [31]: 60.5%
- viability, T/C [32]: 49.3%
- viability, T/C [33]: 28.1%
- viability, T/C [34]: 20%
- viability, T/C [35]: 5.65%
- viability, T/C [36]: 1.85%

Compound: Nc1ccn(C2OC(CO)C(O)C2(F)F)c(=O)n1 (centres undefined) + Cc1[nH]c2ccc(F)cc2c1-c1nc2c3cccnc3c3ncccc3c2[nH]1
- IC50 (second compound 0.0316 µM): 215 nM
- IC50 (second compound 0.1 µM): 208 nM
- IC50 (second compound 0.316 µM): 318 nM
- IC50 (second compound 1 µM): 290 nM
- IC50 (second compound 3.16 µM): 240 nM
- IC50 (second compound 10 µM): 110 nM
- viability, T/C [1]: 87.6%
- viability, T/C [2]: 62.5%
- viability, T/C [3]: 44.5%
- viability, T/C [4]: 30.6%
- viability, T/C [5]: 26.2%
- viability, T/C [6]: 23.2%
- viability, T/C [7]: 75.7%
- viability, T/C [8]: 66.4%
- viability, T/C [9]: 36.7%
- viability, T/C [10]: 35.8%
- viability, T/C [11]: 26.4%
- viability, T/C [12]: 19.8%
- viability, T/C [13]: 71.1%
- viability, T/C [14]: 69.5%
- viability, T/C [15]: 46.9%
- viability, T/C [16]: 34.8%
- viability, T/C [17]: 27.9%
- viability, T/C [18]: 20.6%
- viability, T/C [19]: 81.3%
- viability, T/C [20]: 70%
- viability, T/C [21]: 42.5%
- viability, T/C [22]: 38.8%
- viability, T/C [23]: 33.3%
- viability, T/C [24]: 22.1%
- viability, T/C [25]: 69.4%
- viability, T/C [26]: 60.9%
- viability, T/C [27]: 41.3%
- viability, T/C [28]: 43.2%
- viability, T/C [29]: 25.3%
- viability, T/C [30]: 19.7%
- viability, T/C [31]: 54.9%
- viability, T/C [32]: 52.6%
- viability, T/C [33]: 39.6%
- viability, T/C [34]: 30.7%
- viability, T/C [35]: 19.8%
- viability, T/C [36]: 15.1%
